Results published in ChEMBL document CHEMBL1129577, “Identification of a novel oxazolidinone (U-100480) with potent antimycobacterial activity” (1996).

Key:
[1] = system: Mycobacterium tuberculosis; test: In vitro anti-mycobacterial activity against multiple resistant strains of Mycobacterium tuberculosis at 0.125 ug/mL; assay type: functional
[2] = system: Mycobacterium tuberculosis; test: In vitro anti-mycobacterial activity against multiple resistant strains of Mycobacterium tuberculosis at 0.50 ug/mL; assay type: functional

| Structure (SMILES) | No. of strains [1] | No. of strains [2] |
| --- | --- | --- |
| CC(=O)NC[C@H]1CN(c2ccc(N3CCSCC3)c(F)c2)C(=O)O1 [SUTEZOLID] | 3 | 2 |
| CC(=O)NC[C@H]1CN(c2ccc(N3CCS(=O)(=O)CC3)c(F)c2)C(=O)O1 |  | 4 |
